Source: publication PMC8752738, “A propolis-derived small molecule ameliorates metabolic syndrome in obese mice by targeting the CREB/CRTC2 transcriptional complex” (Nature Communications, 2022)
Several values for one entry are separate records, joined by “and”; a condition that tells them apart may be missing. Equal entries are not always repeated.

What was measured:
G6pc promoter (G6p-Luc) = assay: G6p-Luc reporter in primary hepatocytes; format: cell-based, mouse; details: APC 10 μM, 8-h
[1] = Cholesterol, TG, NEFA and glycerol in serum and liver; format: in vivo, mouse; set-up: liver NEFA, Mean 2 (group mean) / Plasma VLDL cholesterol in db/db mice (VLDL-C) / Plasma VLDL cholesterol in db/db mice, group mean / TC in liver_CT2KO (total cholesterol in the liver of CRTC2-KO) / TC in liver_WT (total cholesterol in the liver) / TC in liver_WT, mean / TC in liver_WT, Mean Diff. VEH vs. drug / TC in liver_CRTC2KO, mean / TC in liver_CRTC2KO, Mean Diff. VEH vs. drug: unit not given here; details: for plasma NEFA, Mean 2 (group mean): vs 0mg/kg mean 1.02; for liver glycerol/protein: Figure 5i; for hepatic NEFA / liver NEFA, Mean 2 (group mean): Figure 5h; for liver NEFA, Mean 2 (group mean): vs 0mg/kg mean 165.9; for Plasma total cholesterol, Mean 1 (drug group): N 6; for HF, plasma TG / HF, plasma TG, group mean / HF, plasma TG (Fast, TG): HF mice; for HF, plasma TG, group mean: n=6; for HF, plasma TG (Fast, TG): fasted
Description: Serum total cholesterol (TC), LDL cholesterol (LDL-C), and HDL cholesterol (HDL-C) levels were detected using commercial kits (Beihua, China), and serum VLDL protein was determined by ELISA (Jiancheng, China).
The plasma TG and NEFA levels were determined using corresponding kits from Beihua (China) and WAKO (Japan), respectively. The TG levels of liver and WAT were tested by TG kit (Applygene, China). The NEFA in the liver and WAT were extracted by chloroform–methanol and then subjected to NEFA assay (WAKO).

[2] = tested on: G6pc promoter (G6p-Luc) in the liver; assay: Live imaging of hepatic G6p-Luc reporter; format: in vivo, mouse
Text: Complete DNA sequences encoding human Creb and Crtc2 were cloned in the plasmids psc811 and psc804 to express BD-CREB and VP16AD-CRTC2 recombined proteins, respectively. GAL4-luciferase and RSV (Rous Sarcoma Virus)-Renilla were constructed using the pGL3 plasmid. pGEX5X-1 and pET28C were used to construct plasmids for GST- and HIS-tagged proteins expression, respectively. Adenoviruses encoding Ad-HA-Crtc2, Ad-GFP, and Ad-RSV-β-Gal (galactosidase) have been described previously. For infecting primary hepatocytes, 0.5–1 MOI adenovirus was employed. For live imaging experiments, 10^8 plaques forming units (pfu) Ad-G6P-Luc and 5 × 10^7 pfu Ad-RSV-β-gal adenovirus were delivered to mice by tail vein injection. Mice were then imaged on day 3–5 after adenovirus delivery.
After two days of tail intravenously delivery of Ad-G6p-Luc (10^8 pfu) and Ad-RSV-β-Gal (5 × 10^7 pfu) adenoviruses, mice were orally administered propolis or i.p. injected with APC one dose per day for another 3 days. After 16 h fasting, mice were anesthetized using gaseous isoflurane (Abbott), were i.p. injected with 100 mg/kg sterile firefly D-luciferin (Biosynth AG), and 15 min later, imaged by IVIS-100 Imaging System and analyzed with Living Image Software (Xenogen). Liver lysates were prepared to determine β-Gal activity. Luciferase activity detected for each mouse was normalized to the β-Gal expression in the liver.

[3] = APC 10 mg/kg, individual animals
[4] = APC 20 mg/kg, individual animals
[5] = APC-10mg/kg, individual mice, 10 mg/kg
[6] = APC-20mg/kg, individual mice, 20 mg/kg
[7] = HF mice plasma, APC 10 mg/kg, N=5
[8] = HF mice plasma, APC 10 mg/kg, individual animals
[9] = HF mice plasma, APC 20 mg/kg, N=5
[10] = HF mice plasma, APC 20 mg/kg, individual animals
[11] = db/db mice, plasma, individual animals

Structure (SMILES): CC(C)=CCc1cc(C=CC(=O)O)cc(CC=C(C)C)c1O [APC, 3,5-diprenyl-4-hydroxycinnamic acid]
- CRTC2-S171A induced G6p-luciferase activity (G6pc promoter (G6p-Luc)): reduced
- liver TG normolized by protein [1, 3]: 86.3991 µM/mg and 171.894 µM/mg and 414.053 µM/mg and 275.641 µM/mg and 201.326 µM/mg
- liver TG normolized by protein, group mean ([1]; APC 10 mg/kg, n=5): 229.9
- plasma NEFA ([1]; APC 10 mg/kg, individual mice, Figure 5g): 1.19 mM (2×) and 1.033 mM and 1.294 mM and 1.373 mM
- plasma NEFA, Mean 2 (group mean) ([1]; APC 10mg/kg, n=5, Figure 5g): 1.216
- liver TG normolized by protein [1, 4]: 85.5962 µM/mg and 137.868 µM/mg and 107.422 µM/mg and 121.195 µM/mg and 111.821 µM/mg
- plasma NEFA ([1]; APC 20 mg/kg, individual mice, Figure 5g): 1.765 mM and 1.686 mM and 1.451 mM and 1.242 mM and 1.507 mM
- plasma NEFA, Mean 2 (group mean) ([1]; APC 20mg/kg, n=5, Figure 5g): 1.53
- liver glycerol/protein [1, 5]: 49.7505 nM/mg and 67.3705 nM/mg and 57.1365 nM/mg and 57.0635 nM/mg and 49.612 nM/mg
- hepatic NEFA [1, 5]: 39.07 mM/mg protein and 106.88 mM/mg protein and 150.80 mM/mg protein and 112.30 mM/mg protein and 101.67 mM/mg protein
- liver NEFA, Mean 2 (group mean) ([1]; APC-10mg/kg, n=5): 102.1
- liver glycerol/protein [1, 6]: 43.0466 nM/mg and 45.5622 nM/mg and 43.2605 nM/mg and 44.1634 nM/mg and 41.762 nM/mg
- hepatic NEFA [1, 6]: 39.34 mM/mg protein and 26.14 mM/mg protein and 65.42 mM/mg protein and 29.72 mM/mg protein and 45.95 mM/mg protein
- liver NEFA, Mean 2 (group mean) ([1]; APC-20mg/kg, n=5): 41.31
- NEFA and glycerol levels in the liver ([1]; DIO mice): reduced
- NEFA levels in the plasma ([1]; DIO mice): significantly enhanced
- TG in serum and liver; TC, LDL-C, HDL-C, VLDL-C in serum ([1]; DIO mice, i.p. daily 5 weeks): reduced
- Plasma total cholesterol, Mean Diff. vs. VEH ([1]; Figure 6h, CRTC2KO mice): 5.091 mg/dL
- Plasma total cholesterol, Mean 1 (drug group) ([1]; Figure 6h, CRTC2KO mice, group mean): 223.9 mg/dL
- TC in plasma_CRTC2KO (plasma total cholesterol) ([1]; Figure 6h, CRTC2KO mice, individual mice): 238.201 mg/dL and 210.746 mg/dL and 206.493 mg/dL and 224.280 mg/dL and 219.253 mg/dL and 244.388 mg/dL
- Plasma total cholesterol, Mean Diff. vs. VEH ([1]; Figure 6h, WT mice): -70.45 mg/dL
- Plasma total cholesterol, Mean 1 (drug group) ([1]; Figure 6h, WT mice, group mean): 208.1 mg/dL
- TC in plasma_WT (plasma total cholesterol) ([1]; Figure 6h, WT mice, individual mice): 239.748 mg/dL and 207.149 mg/dL and 201.100 mg/dL and 213.669 mg/dL and 202.239 mg/dL and 184.451 mg/dL
- Plasma HDLC, group mean [1, 7]: 108.7
- Plasma LDLC, group mean [1, 7]: 35.65
- Plasma TC, group mean [1, 7]: 159.1
- Plasma cholesterol fraction: HDL-C [1, 8]: 121.556 mg/dL and 100.915 mg/dL and 96.3277 mg/dL and 114.676 mg/dL and 110.089 mg/dL
- Plasma cholesterol fraction: TC [1, 8]: 183.52 mg/dL and 143.341 mg/dL and 133.376 mg/dL and 156.357 mg/dL and 178.886 mg/dL
- Plasma cholesterol fraction: lDL-C [1, 8]: 34.819 mg/dL and 32.859 mg/dL and 26.6884 mg/dL and 35.653 mg/dL and 48.218 mg/dL
- plasma VLDL-C in HF mice [1, 8]: 7.592 mM and 8.572 mM and 12.094 mM and 7.185 mM and 10.797 mM
- Plasma LDLC, group mean [1, 9]: 35.83
- Plasma TC, group mean [1, 9]: 149.8
- Plasma cholesterol fraction: HDL-C [1, 10]: 115.823 mg/dl and 123.85 mg/dl and 106.649 mg/dl (2×) and 111.236 mg/dl
- Plasma cholesterol fraction: TC [1, 10]: 171.677 mg/dL and 165.819 mg/dL and 163.116 mg/dL and 116.704 mg/dL and 131.574 mg/dL
- Plasma cholesterol fraction: lDL-C [1, 10]: 30.997 mg/dL and 43.001 mg/dL and 39.18 mg/dL and 41.345 mg/dL and 24.6089 mg/dL
- plasma VLDL-C in HF mice [1, 10]: 7.201 mM and 6.888 mM and 6.935 mM and 9.593 mM and 6.573 mM
- HF, plasma TG [1, 3]: 206.957 mg/dL and 266.745 mg/dL and 324.233 mg/dL and 312.736 mg/dL and 213.856 mg/dL and 276.893 mg/dL
- HF, plasma TG, group mean ([1]; APC 10 mg/kg): 266.9
- HF, plasma TG [1, 4]: 191.58 mg/dL and 265.587 mg/dL and 200.059 mg/dL and 301.238 mg/dL and 218.455 mg/dL and 257.547 mg/dL
- HF, plasma TG, group mean ([1]; APC 20 mg/kg): 239.1
- HF, plasma TG (Fast, TG) [1, 3]: 2.336 mM and 3.011 mM and 3.66 mM and 3.53 mM and 2.414 mM and 3.1252 mM
- HF, plasma TG (Fast, TG) [1, 4]: 2.1623 mM and 2.9976 mM and 2.258 mM and 3.4 mM and 2.466 mM and 2.907 mM
- plasma NEFA ([1]; WT lean mice ip APC, individual mice): 0.3625 mM and 0.9375 mM (2×) and 0.4375 mM (2×) and 0.3875 mM and 0.3375 mM
- Plasma HDL cholesterol (HDLC) in db/db mice [1, 11]: 102.090 mg/dL and 118.865 mg/dL and 74.315 mg/dL and 130.914 mg/dL and 101.419 mg/dL
- Plasma LDL cholesterol (LDLC) in db/db mice [1, 11]: 136.268 mg/dL and 110.602 mg/dL and 104.635 mg/dL and 153.302 mg/dL and 128.968 mg/dL
- Plasma total cholesterol (TC) in db/db mice [1, 11]: 321.58 mg/dL and 345.006 mg/dL and 255.56 mg/dL and 362.043 mg/dL and 310.931 mg/dL
- plasma TG in db/db mice [1, 11]: 326.962 mg/dL and 300.088 mg/dL and 273.215 mg/dL and 309.046 mg/dL and 418.497 mg/dL
- Plasma total cholesterol (TLC) in db/db mice, group mean ([1]; db/db mice, plasma, mean, N 5): 319 mg/dL
- Plasma VLDL cholesterol in db/db mice, group mean ([1]; db/db mice, plasma, mean, sample size 5): 14.3
- TC in liver_CRTC2KO, Mean Diff. VEH vs. drug ([1]; liver, CRTC2-KO mice, VEH minus drug): 4.338
- TG in liver_CT2KO, Mean Diff. vs. VEH ([1]; liver, CRTC2-KO mice, drug minus VEH): 1.019 mg/g protein
- TC in liver_CRTC2KO, mean ([1]; liver, CRTC2-KO mice, group mean (Mean 2), N=6): 47.01
- TG in liver_CT2KO, mean ([1]; liver, CRTC2-KO mice, group mean, N=6): 16.67 mg/g protein
- TG in liver_CT2KO ([1]; liver, CRTC2-KO mice, individual animals, Supp.fig.5c): 24.3792 mg/g protein and 12.893 mg/g protein and 18.4652 mg/g protein and 10.1068 mg/g protein and 21.2872 mg/g protein and 12.8898 mg/g protein
- TC in liver_CT2KO (total cholesterol in the liver of CRTC2-KO) ([1]; liver, CRTC2-KO mice, individual animals, Supp.fig.5d): 58.4768 and 29.5309 and 45.7311 and 42.1461 and 61.1694 and 45.0332
- TC in liver_WT, Mean Diff. VEH vs. drug ([1]; liver, WT mice, VEH minus drug): 14.77
- TG in liver_WT, Mean Diff. vs. VEH ([1]; liver, WT mice, drug minus VEH): -10.82 mg/g protein
- TC in liver_WT, mean ([1]; liver, WT mice, group mean (Mean 2), N=6): 45.59
- TG in liver_WT, mean ([1]; liver, WT mice, group mean, N=6): 9.137 mg/g protein
- TG in liver_WT ([1]; liver, WT mice, individual animals, Supp.fig.5c): 10.5445 mg/g protein and 8.1654 mg/g protein and 11.0077 mg/g protein and 10.5773 mg/g protein and 6.8582 mg/g protein and 7.67 mg/g protein
- TC in liver_WT (total cholesterol in the liver) ([1]; liver, WT mice, individual animals, Supp.fig.5d): 40.0962 and 49.3508 and 44.4273 and 45.043 and 48.2093 and 46.4302
- plasma and liver cholesterol, liver TG in Crtc2-KO mice ([1]; oral 20 mg/kg, 3 weeks): little effect
- G6P-Luc reporter activity in the livers ([2]; DIO mice, i.p. 20 mg/kg daily, 3 days): substantially decreased
- Relative G6P-LUC activity, folds (mean of column B) ([2]; Figure 8a right, group mean, n=5, VEH mean 0.996): 0.402 folds
- Relative G6P-LUC activity, folds ([2]; Figure 8a right, individual mice, vs VEH): 0.6379 folds and 0.1281 folds and 0.5105 folds and 0.3399 folds and 0.3902 folds
